In patent US10828315B2 (Madrigal Pharmaceuticals, Inc., priority 2013, dated 2020):
≈ marks a conversion by molar mass, not a printed value. Entries after “also recorded” stand apart in the source; their conditions may differ.

What was measured:
[1] = test system: human urinary bladder cancer cell line RT-112; assay: Cytotoxicity assay (CellTiter-Glo, 72 h), RT-112; format: cell-based; settings: RT-112, 72 hours, read-out: Cytotoxicity (IC50, nM) RT-112
Procedure: Cytotoxicity of SDC-TRAP molecules was determined in three cancer cell lines. […] 80 μL of CellTiter-Glo was added to each well, followed by room temperature incubation in the dark for 15 minutes. Cell was determined by luminescence. IC50 was calculated using XLfit™ software.

[2] = Artificial membrane permeability assay (PAMPA); settings: same protocol, second table
[3] = test system: H2AX phosphorylation, HSP70, EGFR, MET; assay: Pharmacodynamics in CRC (HCT-116) xenograft tumors; format: in vivo, mouse
[4] = Metabolite profiling and identification; format: in vitro ADME; design: key: —: Not detected; settings: for Metabolite Hydrolysis (SN-38): M+1 393.3; for Metabolite Hydrolysis (SN-38) + H2O (carboxylate form): M+1 411.3; for Metabolite Hydrolysis (SDC-TRAP-0062): M+1 462.3; for Metabolite Hydrolysis (SDC-TRAP-0062) + N-dealkylation + glucuronide: M+1 527.3; for Metabolite Hydrolysis (SN-38) + glucuronidation: M+1 569.3; for Metabolite Hydrolysis (SN-38) + hydroxylation + glucuronidation: M+1 585.3; for Metabolite Hydrolysis (SDC-TRAP-0062) + glucuronidation: M+1 638.3; for Metabolite Hydrolysis (SDC-TRAP-0062) + oxidation + glucuronide: M+1 652.3; for Metabolite Hydrolysis (SDC-TRAP-0062) + di-oxidation + glucuronide: M+1 668.3; for Metabolite Hydrolysis (SDC-TRAP-0062) + H2O (ring opened) + glucuronide: M+1 670.3; for Metabolite Hydroxylation: M+1 896.3; for Metabolite Carboxylate form: M+1 898.3; for Metabolite Di-hydroxylation: M+1 912.4; for Metabolite Glucuronidation: M+1 1056.4
From the text: Metabolite Profiling and Identification: Metabolite profiling/identification for SDC-TRAP-0063 (M+1:880.3)

[5] = Solubility of SDC-TRAP-0063 (ganetespib placebo formulation, PEG-300); format: physicochemical; settings: for solubility at 1 h / solubility at 1 day / solubility at 3 days / solubility at 7 days: ganetespib placebo formulation, organic solvent or mixture, thermodynamic from solid
Procedure: Concentration of dissolved drug was determined by HPLC assay method at 1 hr, 1 day, 3 days and 7 days.

[6] = kinetic solubility in ganetespib placebo formulation, Lot6
[7] = kinetic solubility in ganetespib placebo formulation, Lot8

CCc1c2c(nc3ccc(OC(=O)N4CCC(CCn5ccc6cc(-n7c(O)nnc7-c7cc(C(C)C)c(O)cc7O)ccc65)CC4)cc13)-c1cc3c(c(=O)n1C2)COC(=O)[C@]3(O)CC [SDC-TRAP-0063, 4,11-diethyl-4-hydroxy-3,14-dioxo-3,4,12,14-tetrahydro-1H-pyrano[3′,4′:6,7]indolizino[1,2-b]quinolin-9-yl 4-(2-(5-(3-(2,4-dihydroxy-5-isopropylphenyl)-5-hydroxy-4H-1,2,4-triazol-4-yl)-1H-indol-1-yl)ethyl)piperidine-1-carboxylate]
IC50 [1]: 83 nM | Mass Retention [2]: 18.7% | H2AX phosphorylation ([3]; HCT-116 tumors, 24 hr): stimulate H2AX phosphorylation at 24 hr | HSP70 and Hsp90 client protein (EGFR, MET) expression ([3]; HCT-116 tumors, 24 hr exposure): induces HSP70 comparable to irinotecan but much less than ganetespib; also recorded: lack of effects on EGFR and MET stability | Hsp90 inhibition (conclusion from PD) ([3]; HCT-116 xenograft tumors): weak Hsp90 inhibitor | kinetics of H2AX phosphorylation ([3]; HCT-116 xenograft tumors): beginning at 8 hr and leveling off at 24 hr | Metabolite Hydrolysis (SN-38) ([4]; Hepatocytes Dog): √ | Metabolite Hydrolysis (SN-38) + H2O (carboxylate form) ([4]; Hepatocytes Dog): — | Metabolite Hydrolysis (SDC-TRAP-0062) ([4]; Hepatocytes Dog): — | Metabolite Hydrolysis (SDC-TRAP-0062) + N-dealkylation + glucuronide ([4]; Hepatocytes Dog): — | Metabolite Hydrolysis (SN-38) + glucuronidation ([4]; Hepatocytes Dog): — | Metabolite Hydrolysis (SN-38) + hydroxylation + glucuronidation ([4]; Hepatocytes Dog): — | Metabolite Hydrolysis (SDC-TRAP-0062) + glucuronidation ([4]; Hepatocytes Dog): — | Metabolite Hydrolysis (SDC-TRAP-0062) + oxidation + glucuronide ([4]; Hepatocytes Dog): — | Metabolite Hydrolysis (SDC-TRAP-0062) + di-oxidation + glucuronide ([4]; Hepatocytes Dog): — | Metabolite Hydrolysis (SDC-TRAP-0062) + H2O (ring opened) + glucuronide ([4]; Hepatocytes Dog): — | Metabolite Hydroxylation ([4]; Hepatocytes Dog): √ | Metabolite Carboxylate form ([4]; Hepatocytes Dog): √ | Metabolite Di-hydroxylation ([4]; Hepatocytes Dog): √ | Metabolite Glucuronidation ([4]; Hepatocytes Dog): √ | Metabolite Hydrolysis (SN-38) ([4]; Hepatocytes Human): — | Metabolite Hydrolysis (SN-38) + H2O (carboxylate form) ([4]; Hepatocytes Human): — | Metabolite Hydrolysis (SDC-TRAP-0062) ([4]; Hepatocytes Human): — | Metabolite Hydrolysis (SDC-TRAP-0062) + N-dealkylation + glucuronide ([4]; Hepatocytes Human): — | Metabolite Hydrolysis (SN-38) + glucuronidation ([4]; Hepatocytes Human): √ | Metabolite Hydrolysis (SN-38) + hydroxylation + glucuronidation ([4]; Hepatocytes Human): — | Metabolite Hydrolysis (SDC-TRAP-0062) + glucuronidation ([4]; Hepatocytes Human): — | Metabolite Hydrolysis (SDC-TRAP-0062) + oxidation + glucuronide ([4]; Hepatocytes Human): — | Metabolite Hydrolysis (SDC-TRAP-0062) + di-oxidation + glucuronide ([4]; Hepatocytes Human): — | Metabolite Hydrolysis (SDC-TRAP-0062) + H2O (ring opened) + glucuronide ([4]; Hepatocytes Human): — | Metabolite Hydroxylation ([4]; Hepatocytes Human): — | Metabolite Carboxylate form ([4]; Hepatocytes Human): — | Metabolite Di-hydroxylation ([4]; Hepatocytes Human): — | Metabolite Glucuronidation ([4]; Hepatocytes Human): √ | Metabolite Hydrolysis (SN-38) ([4]; Hepatocytes Monkey): √ | Metabolite Hydrolysis (SDC-TRAP-0062) ([4]; Hepatocytes Monkey): — | Metabolite Hydrolysis (SDC-TRAP-0062) + N-dealkylation + glucuronide ([4]; Hepatocytes Monkey): — | Metabolite Hydrolysis (SN-38) + glucuronidation ([4]; Hepatocytes Monkey): √ | Metabolite Hydrolysis (SN-38) + hydroxylation + glucuronidation ([4]; Hepatocytes Monkey): √ | Metabolite Hydrolysis (SDC-TRAP-0062) + glucuronidation ([4]; Hepatocytes Monkey): — | Metabolite Hydrolysis (SDC-TRAP-0062) + oxidation + glucuronide ([4]; Hepatocytes Monkey): — | Metabolite Hydrolysis (SDC-TRAP-0062) + di-oxidation + glucuronide ([4]; Hepatocytes Monkey): — | Metabolite Hydrolysis (SDC-TRAP-0062) + H2O (ring opened) + glucuronide ([4]; Hepatocytes Monkey): — | Metabolite Hydroxylation ([4]; Hepatocytes Monkey): — | Metabolite Carboxylate form ([4]; Hepatocytes Monkey): — | Metabolite Di-hydroxylation ([4]; Hepatocytes Monkey): — | Metabolite Hydrolysis (SN-38) ([4]; Hepatocytes Mouse): — | Metabolite Hydrolysis (SN-38) + H2O (carboxylate form) ([4]; Hepatocytes Mouse): — | Metabolite Hydrolysis (SDC-TRAP-0062) ([4]; Hepatocytes Mouse): — | Metabolite Hydrolysis (SDC-TRAP-0062) + N-dealkylation + glucuronide ([4]; Hepatocytes Mouse): — | Metabolite Hydrolysis (SN-38) + glucuronidation ([4]; Hepatocytes Mouse): — | Metabolite Hydrolysis (SN-38) + hydroxylation + glucuronidation ([4]; Hepatocytes Mouse): — | Metabolite Hydrolysis (SDC-TRAP-0062) + glucuronidation ([4]; Hepatocytes Mouse): — | Metabolite Hydrolysis (SDC-TRAP-0062) + oxidation + glucuronide ([4]; Hepatocytes Mouse): — | Metabolite Hydrolysis (SDC-TRAP-0062) + di-oxidation + glucuronide ([4]; Hepatocytes Mouse): — | Metabolite Hydrolysis (SDC-TRAP-0062) + H2O (ring opened) + glucuronide ([4]; Hepatocytes Mouse): — | Metabolite Hydroxylation ([4]; Hepatocytes Mouse): — | Metabolite Carboxylate form ([4]; Hepatocytes Mouse): — | Metabolite Di-hydroxylation ([4]; Hepatocytes Mouse): — | Metabolite Glucuronidation ([4]; Hepatocytes Mouse): √ | Metabolite Hydrolysis (SN-38) ([4]; Hepatocytes Rat): — | Metabolite Hydrolysis (SN-38) + H2O (carboxylate form) ([4]; Hepatocytes Rat): — | Metabolite Hydrolysis (SDC-TRAP-0062) ([4]; Hepatocytes Rat): — | Metabolite Hydrolysis (SDC-TRAP-0062) + N-dealkylation + glucuronide ([4]; Hepatocytes Rat): — | Metabolite Hydrolysis (SN-38) + glucuronidation ([4]; Hepatocytes Rat): √ | Metabolite Hydrolysis (SN-38) + hydroxylation + glucuronidation ([4]; Hepatocytes Rat): — | Metabolite Hydrolysis (SDC-TRAP-0062) + glucuronidation ([4]; Hepatocytes Rat): — | Metabolite Hydrolysis (SDC-TRAP-0062) + oxidation + glucuronide ([4]; Hepatocytes Rat): — | Metabolite Hydrolysis (SDC-TRAP-0062) + di-oxidation + glucuronide ([4]; Hepatocytes Rat): — | Metabolite Hydrolysis (SDC-TRAP-0062) + H2O (ring opened) + glucuronide ([4]; Hepatocytes Rat): — | Metabolite Hydroxylation ([4]; Hepatocytes Rat): — | Metabolite Carboxylate form ([4]; Hepatocytes Rat): — | Metabolite Di-hydroxylation ([4]; Hepatocytes Rat): — | Metabolite Hydrolysis (SN-38) ([4]; Mouse in vivo Plasma 6 h): √ | Metabolite Hydrolysis (SN-38) + H2O (carboxylate form) ([4]; Mouse in vivo Plasma 6 h): √ | Metabolite Hydrolysis (SDC-TRAP-0062) ([4]; Mouse in vivo Plasma 6 h): √ | Metabolite Hydrolysis (SDC-TRAP-0062) + N-dealkylation + glucuronide ([4]; Mouse in vivo Plasma 6 h): √ | Metabolite Hydrolysis (SN-38) + glucuronidation ([4]; Mouse in vivo Plasma 6 h): √ | Metabolite Hydrolysis (SN-38) + hydroxylation + glucuronidation ([4]; Mouse in vivo Plasma 6 h): — | Metabolite Hydrolysis (SDC-TRAP-0062) + glucuronidation ([4]; Mouse in vivo Plasma 6 h): √ | Metabolite Hydrolysis (SDC-TRAP-0062) + oxidation + glucuronide ([4]; Mouse in vivo Plasma 6 h): √ | Metabolite Hydrolysis (SDC-TRAP-0062) + di-oxidation + glucuronide ([4]; Mouse in vivo Plasma 6 h): √ | Metabolite Hydrolysis (SDC-TRAP-0062) + H2O (ring opened) + glucuronide ([4]; Mouse in vivo Plasma 6 h): √ | Metabolite Hydroxylation ([4]; Mouse in vivo Plasma 6 h): — | Metabolite Carboxylate form ([4]; Mouse in vivo Plasma 6 h): √ | Metabolite Di-hydroxylation ([4]; Mouse in vivo Plasma 6 h): — | Metabolite Glucuronidation ([4]; Mouse in vivo Plasma 6 h): √ | Metabolite Hydrolysis (SN-38) ([4]; Mouse in vivo Tumor 24 h): √ | Metabolite Hydrolysis (SN-38) + H2O (carboxylate form) ([4]; Mouse in vivo Tumor 24 h): √ | Metabolite Hydrolysis (SDC-TRAP-0062) ([4]; Mouse in vivo Tumor 24 h): √ | Metabolite Hydrolysis (SDC-TRAP-0062) + N-dealkylation + glucuronide ([4]; Mouse in vivo Tumor 24 h): — | Metabolite Hydrolysis (SN-38) + glucuronidation ([4]; Mouse in vivo Tumor 24 h): √ | Metabolite Hydrolysis (SN-38) + hydroxylation + glucuronidation ([4]; Mouse in vivo Tumor 24 h): — | Metabolite Hydrolysis (SDC-TRAP-0062) + glucuronidation ([4]; Mouse in vivo Tumor 24 h): √ | Metabolite Hydrolysis (SDC-TRAP-0062) + oxidation + glucuronide ([4]; Mouse in vivo Tumor 24 h): — | Metabolite Hydrolysis (SDC-TRAP-0062) + di-oxidation + glucuronide ([4]; Mouse in vivo Tumor 24 h): — | Metabolite Hydrolysis (SDC-TRAP-0062) + H2O (ring opened) + glucuronide ([4]; Mouse in vivo Tumor 24 h): — | Metabolite Hydroxylation ([4]; Mouse in vivo Tumor 24 h): — | Metabolite Carboxylate form ([4]; Mouse in vivo Tumor 24 h): √ | Metabolite Di-hydroxylation ([4]; Mouse in vivo Tumor 24 h): — | Metabolite Glucuronidation ([4]; Mouse in vivo Tumor 24 h): √ | solubility at 1 h ([5]; kinetic solubility in ganetespib placebo formulation (35% v/v tween 80, 40% v/v PEG-300, 25% v/v dehydrated alcohol), Lot6): 11.3 mg/mL (≈ 12.8 mM) | solubility at 1 day [5, 6]: 10.2 mg/mL (≈ 11.6 mM) | solubility at 3 days [5, 6]: 9.68 mg/mL (≈ 11 mM) | solubility at 7 days [5, 6]: 7.32 mg/mL (≈ 8.32 mM) | solubility at 1 h [5, 7]: 36.2 mg/mL (≈ 41.1 mM) | solubility at 1 day [5, 7]: 35.3 mg/mL (≈ 40.1 mM) | solubility at 3 days [5, 7]: 30 mg/mL (≈ 34.1 mM) | solubility at 7 days [5, 7]: 19.7 mg/mL (≈ 22.4 mM) | solubility over time (1 hr, 1 day, 3 days, 7 days) ([5]; lot 6 and lot 8, ganetespib placebo formulation (35% v/v tween 80, 40% v/v PEG-300, 25% v/v dehydrated alcohol), ambient): appear to decrease over time, although no any degradation was observed
